From US10450297B2, “Sulfonyl amide derivatives for the treatment of abnormal cell growth” (Pfizer, Inc., priority 2007, dated 2019)

Biological target: FAK kinase (catalytic construct FAK(410-689)) (Homo sapiens (Human), UniProt Q05397)
Experiment: FAKcd kinase ELISA (inhibition of poly-glu-tyr phosphorylation by FAK(410-689))
Type: biochemical
Settings: 50 μM final ATP

FAK kinase (catalytic construct FAK(410-689)), sequence (Q05397 410-689): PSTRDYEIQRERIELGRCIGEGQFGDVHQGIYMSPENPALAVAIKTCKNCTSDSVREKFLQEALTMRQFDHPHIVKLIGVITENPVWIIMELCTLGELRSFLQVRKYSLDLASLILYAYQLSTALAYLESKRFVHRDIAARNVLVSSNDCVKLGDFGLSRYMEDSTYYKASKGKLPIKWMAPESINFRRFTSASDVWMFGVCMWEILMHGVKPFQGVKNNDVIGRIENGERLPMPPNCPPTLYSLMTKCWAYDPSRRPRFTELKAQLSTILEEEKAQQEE

IC50	Structure (SMILES)
0.863 nM	CN(c1cccnc1CNc1nc(Nc2ccc(C(N)=O)c(F)c2)ncc1C(F)(F)F)S(C)(=O)=O [Compound 332, 2-fluoro-4-({4-[({3-[methyl(methylsulfonyl)amino]pyridin-2-yl}methyl)amino]-5-(trifluoromethyl)pyrimidin-2-yl}amino)benzamide]
2.14 nM	CN(c1cccc(CNc2nc(Nc3ccc(C(N)=O)c(F)c3)ncc2C(F)(F)F)c1)S(C)(=O)=O [Compound 333, 2-fluoro-4-{[4-({3-[methyl(methylsulfonyl)amino]benzyl}amino)-5-(trifluoromethyl)pyrimidin-2-yl]amino}benzamide]
< 0.595 nM	Cc1cc(Nc2ncc(C(F)(F)F)c(NCc3cccnc3N(C)S(C)(=O)=O)n2)ccc1C(N)=O [Compound 334, 2-methyl-4-({4-[({2-[methyl(methylsulfonyl)amino]pyridin-3-yl}methyl)amino]-5-(trifluoromethyl)pyrimidin-2-yl)amino)benzamide]
< 0.595 nM	Cc1cc(Nc2ncc(C(F)(F)F)c(NCc3ncccc3N(C)S(C)(=O)=O)n2)ccc1C(N)=O [Compound 336, 2-methyl-4-({4-[({3-[methyl(methylsulfonyl)amino]pyridin-2-yl}methyl)amino]-5-(trifluoromethyl)pyrimidin-2-yl)amino)benzamide]
< 0.595 nM	Cc1cc(Nc2ncc(C(F)(F)F)c(NCc3nccnc3N(C)S(C)(=O)=O)n2)ccc1C(N)=O [Compound 338, 2-methyl-4-({4-[({3-[methyl(methylsulfonyl)amino]pyrazin-2-yl}methyl)amino]-5-(trifluoromethyl)pyrimidin-2-yl}amino)benzamide]
< 0.595 nM	Cc1cc(Nc2ncc(C(F)(F)F)c(NCc3cccc(N(C)S(C)(=O)=O)c3)n2)ccc1C(N)=O [Compound 340, 2-methyl-4-{[4-({3-[methyl(methylsulfonyl)amino]benzyl}amino)-5-(trifluoromethyl)pyrimidin-2-yl]amino}benzamide]
< 0.595 nM	Cc1cc(C(N)=O)ccc1Nc1ncc(C(F)(F)F)c(NCc2cccnc2N(C)S(C)(=O)=O)n1 [Compound 341, 3-methyl-4-({4-[({2-[methyl(methylsulfonyl)amino]pyridin-3-yl}methyl)amino]-5-(trifluoromethyl)pyrimidin-2-yl}amino)benzamide]
1.03 nM	Cc1cc(C(N)=O)ccc1Nc1ncc(C(F)(F)F)c(NCc2cccnc2N(C)S(C)(=O)=O)n1 [Compound 342, 3-methyl-4-({4-[({2-[methyl(methylsulfonyl)amino]pyridin-3-yl}methyl)amino]-5-(trifluoromethyl)pyrimidin-2-yl}amino)benzamide]
0.993 nM	Cc1cc(C(N)=O)ccc1Nc1ncc(C(F)(F)F)c(NCc2ncccc2N(C)S(C)(=O)=O)n1 [Compound 343, 3-methyl-4-({4-[({3-[methyl(methylsulfonyl)amino]pyridin-2-yl}methyl)amino]-5-(trifluoromethyl)pyrimidin-2-yl}amino)benzamide]
0.9 nM	Cc1cc(C(N)=O)ccc1Nc1ncc(C(F)(F)F)c(NCc2nccnc2N(C)S(C)(=O)=O)n1 [Compound 344, 3-methyl-4-({4-[({3-[methyl(methylsulfonyl)amino]pyrazin-2-yl}methyl)amino]-5-(trifluoromethyl)pyrimidin-2-yl}amino)benzamide]
0.981 nM	Cc1cc(C(N)=O)ccc1Nc1ncc(C(F)(F)F)c(NCc2nccnc2N(C)S(C)(=O)=O)n1 [Compound 345, 3-methyl-4-({4-[({3-[methyl(methylsulfonyl)amino]pyrazin-2-yl}methyl)amino]-5-(trifluoromethyl)pyrimidin-2-yl}amino)benzamide]
0.886 nM	Cc1cc(C(N)=O)ccc1Nc1ncc(C(F)(F)F)c(NCc2cccc(N(C)S(C)(=O)=O)c2)n1 [Compound 346, 3-methyl-4-{[4-({3-[methyl(methylsulfonyl)amino]benzyl}amino)-5-(trifluoromethyl)pyrimidin-2-yl]amino}benzamide]
